ChEMBL document CHEMBL1155979, “Synthesis of gibberellin derivatives with anti-tumor bioactivities” (Bioorg Med Chem Lett, 2009)
In brackets after ≈: the same amount, converted by molar mass. Activity calls are given as the source filed them. No cut-off for these calls is given here.

Assays:
[1] = system: MKN-28; assay: Cytotoxicity against human MKN28 cells by MTT assay; assay type: functional, cell-based
[2] = system: A549; assay: Cytotoxicity against human A549 cells by MTT assay; assay type: functional, cell-based
[3] = system: HepG2; assay: Cytotoxicity against human HepG2 cells by MTT assay; assay type: functional, cell-based
[4] = system: HT-29; assay: Cytotoxicity against human HT-29 cells by MTT assay; assay type: functional, cell-based
[5] = system: HL-60; assay: Cytotoxicity against human HL60 cells by MTT assay; assay type: functional, cell-based
[6] = Cytotoxicity against human BIU87 cells by MTT assay; assay type: functional, cell-based
[7] = target: T1, DNA topoisomerase 1 (Homo sapiens) (UniProt P11387); assay: Inhibition of topoisomerase I relaxation activity assessed as supercoiled pBR322 DNA
T1 sequence (whole entry): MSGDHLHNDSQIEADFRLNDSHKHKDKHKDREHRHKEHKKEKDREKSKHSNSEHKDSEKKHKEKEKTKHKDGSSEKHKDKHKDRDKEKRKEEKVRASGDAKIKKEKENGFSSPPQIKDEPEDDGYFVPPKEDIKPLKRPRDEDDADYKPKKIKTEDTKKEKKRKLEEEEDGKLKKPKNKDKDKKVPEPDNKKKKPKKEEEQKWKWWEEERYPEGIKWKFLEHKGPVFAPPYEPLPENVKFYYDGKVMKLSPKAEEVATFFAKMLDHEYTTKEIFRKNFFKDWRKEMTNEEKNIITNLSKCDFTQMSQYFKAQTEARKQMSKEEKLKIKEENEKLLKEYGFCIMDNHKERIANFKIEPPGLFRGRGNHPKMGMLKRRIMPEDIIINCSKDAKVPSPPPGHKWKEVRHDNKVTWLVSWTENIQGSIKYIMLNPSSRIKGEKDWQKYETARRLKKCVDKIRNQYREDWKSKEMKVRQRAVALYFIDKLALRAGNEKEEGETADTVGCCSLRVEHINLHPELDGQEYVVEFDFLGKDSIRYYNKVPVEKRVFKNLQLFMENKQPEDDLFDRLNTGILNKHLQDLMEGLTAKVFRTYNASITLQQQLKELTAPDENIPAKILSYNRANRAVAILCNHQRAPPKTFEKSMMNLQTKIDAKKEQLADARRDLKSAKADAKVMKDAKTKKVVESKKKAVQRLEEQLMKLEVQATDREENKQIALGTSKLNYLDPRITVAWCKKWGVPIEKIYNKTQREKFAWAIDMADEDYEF

[8] = target: T1, DNA topoisomerase 1 (Homo sapiens); assay: Inhibition of topoisomerase I relaxation activity assessed as supercoiled pBR322 DNA at 8 ug/ml

Row | inhibition [7] | inhibition [8] | SMILES | IC50 [1] | IC50 [2] | IC50 [3] | IC50 [4] | IC50 [5] | IC50 [6]
1 |  |  | C=C1C(=O)[C@]23C[C@@]1(OC)CC[C@H]2[C@@]12C=CC(=O)[C@](C)(C(=O)O1)[C@H]2[C@@H]3C(=O)OC | 3.4 µM | 54.5 µM | 43.5 µM | 80.2 µM |  | 
2 |  |  | C=C1C(=O)[C@]23C[C@@]1(O)CC[C@H]2[C@@]12C=CC(=O)[C@](C)(C(=O)O1)[C@H]2[C@@H]3C(=O)OCc1ccccc1 | 2.5 µM | 23.9 µM | 20.5 µM | 83.3 µM |  | 
3 |  |  | C=C1C[C@]23C[C@@]1(O)CC[C@H]2[C@@]12C=CC(=O)[C@](C)(C(=O)O1)[C@H]2[C@@H]3C(=O)OCc1ccccc1 |  |  |  |  | > 40 mg/L | > 40 mg/L
4 | Dose-dependent effect | Active | C=C1C(=O)[C@]23C[C@@]1(Cl)CC[C@H]2[C@@]12C=CC(=O)[C@](C)(C(=O)O1)[C@H]2[C@@H]3C(=O)OC | 4.8 µM | 60.3 µM | 39.8 µM | 2.9 µM | 6.5 mg/L (≈ 16.6 µM) | 1 mg/L (≈ 2.56 µM)
5 |  |  | C=C1C[C@]23C[C@@]1(O)CC[C@H]2[C@@]12C=C[C@H](O)[C@](C)(C(=O)O1)[C@H]2[C@@H]3C(=O)OCc1ccccc1 |  |  |  |  | > 100 mg/L | > 100 mg/L
6 |  |  | C=C1C(=O)[C@]23C[C@@]1(F)CC[C@H]2[C@@]12C=CC(=O)[C@](C)(C(=O)O1)[C@H]2[C@@H]3C(=O)OCc1ccccc1 | 9.8 µM | 64.4 µM | 44.1 µM | 59.1 µM |  | 
7 |  |  | C=C1C(=O)[C@]23C[C@@]1(Cl)CC[C@H]2[C@@]12C=CC(=O)[C@](C)(C(=O)O1)[C@H]2[C@@H]3C(=O)OCc1ccccc1 | 6.8 µM | 28.8 µM | 17.9 µM | 4.5 µM | 2.7 mg/L (≈ 5.78 µM) | 0.5 mg/L (≈ 1.07 µM)
8 |  |  | C=C1[C@H](O)[C@]23C[C@@]1(OC(C)=O)CC[C@H]2[C@@]12C=C[C@H](OC(C)=O)[C@](C)(C(=O)O1)[C@H]2[C@@H]3C(=O)OCc1ccccc1 |  |  |  |  | > 100 mg/L | > 100 mg/L
9 |  |  | C=C1[C@H](O)[C@]23C[C@@]1(O)CC[C@H]2[C@@]12C=C[C@H](O)[C@](C)(C(=O)O1)[C@H]2[C@@H]3C(=O)OC |  |  |  |  | > 100 mg/L | > 100 mg/L
10 |  |  | C=C1[C@H](O)[C@]23C[C@@]1(O)CC[C@H]2[C@@]12C=C[C@H](O)[C@](C)(C(=O)O1)[C@H]2[C@@H]3C(=O)OCc1ccccc1 |  |  |  |  | > 100 mg/L | > 100 mg/L
11 |  |  | C=C1C[C@]23C[C@@]1(OC(C)=O)CC[C@H]2[C@@]12C=C[C@H](OC(C)=O)[C@](C)(C(=O)O1)[C@H]2[C@@H]3C(=O)OCc1ccccc1 |  |  |  |  | > 100 mg/L | > 100 mg/L
12 |  |  | C=C1C(=O)[C@]23C[C@@]1(OC)CC[C@H]2[C@@]12C=CC(=O)[C@](C)(C(=O)O1)[C@H]2[C@@H]3C(=O)OCc1ccccc1 | 0.8 µM | 28.2 µM | 35 µM | 48.4 µM |  | 
13 |  |  | C=C1C[C@]23C[C@@]1(O)CC[C@H]2[C@@]12C=C[C@H](O)[C@](C)(C(=O)O1)[C@H]2[C@@H]3C(=O)OC |  |  |  |  | > 100 mg/L | > 100 mg/L
14 |  |  | C=C1C(=O)[C@]23C[C@@]1(I)CC[C@H]2[C@@]12C=CC(=O)[C@](C)(C(=O)O1)[C@H]2[C@@H]3C(=O)OC | 6.7 µM | 53.2 µM | 87 µM | 51.9 µM |  | 
15 |  |  | C=C1C(=O)[C@]23C[C@@]1(OCC)CC[C@H]2[C@@]12C=CC(=O)[C@](C)(C(=O)O1)[C@H]2[C@@H]3C(=O)OCc1ccccc1 | 16.5 µM | 24.2 µM | 29.6 µM | 23.3 µM |  | 
16 |  |  | C=C1C(=O)[C@]23C[C@@]1(F)CC[C@H]2[C@@]12C=CC(=O)[C@](C)(C(=O)O1)[C@H]2[C@@H]3C(=O)OC | 4.1 µM | 38.9 µM | 40.6 µM | 72.7 µM |  | 
17 |  |  | C=C1C(=O)[C@]23C[C@@]1(O)CC[C@H]2[C@@]12C=CC(=O)[C@](C)(C(=O)O1)[C@H]2[C@@H]3C(=O)OC | 39.6 µM | 90.9 µM | 37.2 µM | 65.7 µM |  | 
18 |  |  | C=C1C(=O)[C@]23C[C@@]1(OCC)CC[C@H]2[C@@]12C=CC(=O)[C@](C)(C(=O)O1)[C@H]2[C@@H]3C(=O)OC | 82.7 µM | 18.2 µM | 120 µM | 34.1 µM |  | 
19 |  |  | C=C1C[C@]23C[C@@]1(O)CC[C@H]2[C@@]12C=C[C@H](O)[C@](C)(C(=O)O1)[C@H]2[C@@H]3C(=O)O [GIBBERELLIN GA3] |  |  |  |  | > 100 mg/L | > 100 mg/L
20 |  |  | C=C1C(=O)[C@]23C[C@@]1(I)CC[C@H]2[C@@]12C=CC(=O)[C@](C)(C(=O)O1)[C@H]2[C@@H]3C(=O)OCc1ccccc1 | 3 µM | 46 µM | 69.5 µM | 50.2 µM |  | 
21 |  |  | CC[C@]1(O)C[C@H]2CN(CCc3c([nH]c4ccccc34)[C@@](C(=O)OC)(c3cc4c(cc3OC)N(C=O)[C@H]3[C@@](O)(C(=O)OC)[C@H](OC(C)=O)[C@]5(CC)C=CCN6CC[C@]43[C@@H]65)C2)C1 [VINCRISTINE] | 7.1 µM | 2.5 µM | 3.7 µM | 5.3 µM |  | 
22 |  |  | C=C1C(=O)[C@]23C[C@@]1(OC(C)=O)CC[C@H]2[C@@]12C=C[C@H](OC(C)=O)[C@](C)(C(=O)O1)[C@H]2[C@@H]3C(=O)OCc1ccccc1 |  |  |  |  | > 40 mg/L | > 40 mg/L
